Reference: patent US4642314A, “Antiulcer compounds” (Nisshin Flour Milling Co., Ltd., priority 1984, dated 1987)

Experiments:
reserpine-induced ulcer = experiment: Reserpine-induced ulcer (Preventive test); type: in vivo, rat (male SD rats); conditions: Table 1; rat, 100 mg/kg oral, 30 min before reserpine 15 mg/kg i.p.; evaluated at 18 h; read-out: Preventive effect (preventive ratio)
Experimental: (§1) In the case of reserpine-induced ulcer, the assay was performed according to the description in "Arch. Int. Pharmacodym. Ther. 147,113 (1964)", and in the case of acetic acid-induced ulcer, the assay was performed according to the method described in "Jap. J. Pharmac. 19,418 (1969)", by inducing experimental ulcer in rat and evaluating the effect thereon of the compounds tested.
Groups of rats, each consisting of 6 male SD rats weighing 150-200 g were used. After 24 hours' fasting, a sample compound was orally administered to the rat at the dose of 100 mg/kg body weight, and 30 minutes after the administration, reserpine was intraperitoneally injected at the dose of 15 mg/kg body weight. Eighteen hours after the administration, the rats were killed with chloroform. The stomach was taken out, and severity of the hemorrhaging lesion was evaluated according to the method as above ("Arch. Int. Pharmacodym. Ther. 147,113 (1964)).
The preventive ratio was calculated using the following equation, [formula] wherein the control animals were intraperitoneally given reserpine only, at the dose of 15 mg/kg body weight.

[1] = tested on: acetic acid-induced ulcer; experiment: Acetic acid-induced ulcer (Curative test); type: in vivo, rat (male SD rats); conditions: Table 2; rat, 0.05 ml of 15% acetic acid underneath the serosa; lesion area on 14th day
Experimental: as §1
Groups of rats, each consisting of 6 male SD rats weighing 150-200 g were used. The stomach of ether-anesthesized rat was exposed and while taking acre not to injure blood vessels, 0.05 ml of 15% aqueous acetic acid solution was injected underneath the serosa. On the 14th day, the rats were killed with chloroform, the stomach taken out and the area of the infected lesion measured.
The curative ratio was calculated using the above equation: [formula]

[2] = acute toxicity (LD50), intraperitoneal route in mice; type: in vivo; conditions: mouse, in vivo, ip
mice = experiment: as above; type: in vivo

SMILES	inhibition in vivo at 100 mg/kg (reserpine-induced ulcer)	Curative effect (curative ratio) [1]	LD50 ([2]; Table 2)	LD50 (mice; Table 1)	LD50 (mice; Table 2)	LD50 ([2]; Table 1)
CC(=O)OC/C=C(\C)CCC[C@H](C)CCC[C@H](C)CCCC(C)C [Phytyl acetate]	40 to 60%	+ (10%-25%)	> 5000 mg/kg	> 5000 mg/kg		
CCCCCCCC/C=C\CCCCCCCC(=O)OCC=C(C)CCC=C(C)CCC=C(C)CCC=C(C)CCC=C(C)CCC=C(C)CCC=C(C)CCC=C(C)CCC=C(C)C [Solanesyl oleate]	10 to 40%	++ (25%-40%)	> 4000 mg/kg	> 4000 mg/kg		
CC(C)=CCCC(C)=CCCC(C)=CCCC(C)=CCCC(C)=CCCC(C)=CCCC(C)=CCCC(C)=CCCC(C)=CCCC(C)=CCCC(=O)O [Decaprenylacetic acid]	40 to 60%	+++ (40%-)	> 4000 mg/kg	> 4000 mg/kg		
CC(C)=CCCC(C)=CCCC(C)=CCCC(C)=CCCC(C)=CCCC(C)=CCCC(C)=CCCC(C)=CCCC(C)=CCCC(C)=CCCC(=O)OCC=C(C)CCC=C(C)CCC=C(C)CCC=C(C)CCC=C(C)CCC=C(C)CCC=C(C)CCC=C(C)CCC=C(C)CCC=C(C)C [Decaprenyl decaprenylacetate]		+ (10%-25%)			> 5000 mg/kg	
CC(C)=CCCC(C)=CCCC(C)=CCCC(=O)Oc1c(C)c(C)c2c(c1C)CCC(C)(CCCC(C)CCCC(C)CCCC(C)C)O2 (stereo not drawn) [α-Tocopheryl farnesylacetate]	40 to 60%	++ (25%-40%)	> 4000 mg/kg	> 4000 mg/kg		
CCCCCCCC/C=C\CCCCCCCC(=O)OC/C=C(\C)CCC[C@H](C)CCC[C@H](C)CCCC(C)C [Phytyl oleate]	> 60%	+++ (40%-)	> 4000 mg/kg	> 4000 mg/kg		
CCCCCCCC/C=C\CCCCCCCC(=O)OCC=C(C)CCC=C(C)CCC=C(C)CCC=C(C)CCC=C(C)CCC=C(C)CCC=C(C)CCC=C(C)CCC=C(C)CCC=C(C)C [Decaprenyl oleate]	40 to 60%	++ (25%-40%)	> 5000 mg/kg	> 5000 mg/kg		
CC(C)=CCCC(C)=CCCC(C)=CCCC(C)=CCCC(C)=CCCC(C)=CCCC(C)=CCCC(C)=CCCC(C)=CCCC(C)=CCOC(=O)CCC=C(C)CCCC(C)CCCC(C)CCCC(C)C (stereo not shown) [Decaprenyl phytylacetate]	40 to 60%	++ (25%-40%)	> 5000 mg/kg	> 5000 mg/kg		
CC(C)=CCCC(C)=CCCC(=O)Oc1c(C)c(C)c2c(c1C)CCC(C)(CCCC(C)CCCC(C)CCCC(C)C)O2 (stereo not drawn) [α-Tocopheryl geranylacetate]	40 to 60%	+ (10%-25%)	> 4000 mg/kg	> 4000 mg/kg		
CC(=CCCC(=O)Oc1c(C)c(C)c2c(c1C)CCC(C)(CCCC(C)CCCC(C)CCCC(C)C)O2)CCCC(C)CCCC(C)CCCC(C)C (stereo not drawn) [α-Tocopheryl phytylacetate]	10 to 40%	+++ (40%-)	> 4000 mg/kg	> 4000 mg/kg		
CC(C)=CCCC(C)=CCCC(C)=CCCC(C)=CCCC(C)=CCCC(C)=CCCC(C)=CCCC(C)=CCCC(C)=CCCC(C)=CCCC(=O)OCC=C(C)CCCC(C)CCCC(C)CCCC(C)C (stereo not shown) [Phytyl decaprenylacetate]	10 to 40%	+ (10%-25%)	> 4000 mg/kg	> 4000 mg/kg		
CC(C)=CCCC(C)=CCCC(C)=CCCC(C)=CCCC(C)=CCCC(C)=CCCC(C)=CCCC(C)=CCCC(C)=CCCC(C)=CCCC(=O)OCC=C(C)CCC=C(C)CCC=C(C)CCC=C(C)CCC=C(C)CCC=C(C)CCC=C(C)CCC=C(C)CCC=C(C)C [Solanesyl decaprenylacetate]	10 to 40%					> 4000 mg/kg
CC(C)=CCCC(C)=CCCC(C)=CCCC(C)=CCCC(C)=CCCC(C)=CCCC(C)=CCCC(C)=CCCC(C)=CCCC(=O)Oc1c(C)c(C)c2c(c1C)CCC(C)(CCCC(C)CCCC(C)CCCC(C)C)O2 (stereo not drawn) [α-Tocopheryl solanesylacetate]	40 to 60%					> 4000 mg/kg
C/C(=C\CCC(=O)O)CCC[C@H](C)CCC[C@H](C)CCCC(C)C [Phytylacetic acid]	10 to 40%	+ (10%-25%)	> 5000 mg/kg	> 5000 mg/kg		
CC(C)=CCCC(C)=CCCC(C)=CCCC(C)=CCCC(C)=CCCC(C)=CCCC(C)=CCCC(C)=CCCC(C)=CCCC(C)=CCCC(=O)Oc1c(C)c(C)c2c(c1C)CCC(C)(CCCC(C)CCCC(C)CCCC(C)C)O2 (stereo not drawn) [α-Tocopheryl decaprenylacetate]	10 to 40%					> 4000 mg/kg
CCCCCCCC/C=C/CCCCCCCC(=O)OCC=C(C)CCC=C(C)CCC=C(C)CCC=C(C)CCC=C(C)CCC=C(C)CCC=C(C)CCC=C(C)CCC=C(C)CCC=C(C)C [Decaprenyl elaidate]	10 to 40%					> 5000 mg/kg
C/C(=C\CCC(=O)OC(C)C)CCC[C@H](C)CCC[C@H](C)CCCC(C)C [Isopropyl phytylacetate]	10 to 40%					> 5000 mg/kg
CC(=O)OCC=C(C)CCC=C(C)CCC=C(C)CCC=C(C)CCC=C(C)CCC=C(C)CCC=C(C)CCC=C(C)CCC=C(C)CCC=C(C)C [Decaprenyl acetate]	40 to 60%	+ (10%-25%)	> 5000 mg/kg	> 5000 mg/kg		
C=CC(C)(CCCC(C)CCCC(C)CCCC(C)C)OC(=O)CCCCCCC/C=C\CCCCCCCC (stereo not shown) [Isophytyl oleate]	> 60%	+++ (40%-)	> 4000 mg/kg	> 4000 mg/kg		
CC(C)=CCCC(C)=CCCC(C)=CCCC(C)=CCCC(C)=CCCC(C)=CCCC(C)=CCCC(C)=CCCC(C)=CCOC(=O)CCC=C(C)CCCC(C)CCCC(C)CCCC(C)C (stereo not shown) [Solanesyl phytylacetate]	10 to 40%					> 4000 mg/kg
CC(C)=CCC/C(C)=C/CC/C(C)=C/CC/C(C)=C/CC/C(C)=C/CC/C(C)=C/CC/C(C)=C/CC/C(C)=C/CC/C(C)=C/CO [Solanesol]	10 to 40%	++ (25%-40%)			> 4000 mg/kg	> 4000 mg/kg
CCCCCCCCCCCCCCCC(=O)OC/C=C(\C)CCC[C@H](C)CCC[C@H](C)CCCC(C)C [Phytyl palmitate]	40 to 60%					> 5000 mg/kg
CC(C)=CCCC(C)=CCCC(C)=CCCC(=O)OCC=C(C)CCC=C(C)C [Gefarnate, 3,7-dimethyl-2,6-octadienyl-5,9,13-trimethyl-4,8,12-tetradecatrienoate, reference compound]	10 to 40%	± (-10%)				
C=CC(C)(O)CCC=C(C)CCC=C(C)CCC=C(C)CCC=C(C)CCC=C(C)CCC=C(C)CCC=C(C)CCC=C(C)CCC=C(C)C (stereo not shown) [Isodecaprenol]	10 to 40%	++ (25%-40%)			> 4000 mg/kg	> 4000 mg/kg
CC(C)=CCCC(C)CCCC(=O)Oc1c(C)c(C)c2c(c1C)CCC(C)(CCCC(C)CCCC(C)CCCC(C)C)O2 (stereo not drawn) [α-Tocopheryl citronellylacetate]	> 60%					> 4000 mg/kg
CC(C)CCCC(C)CCCC(C)CCCC(C)CCCC(C)CCCC(C)CCCC(C)CCCC(C)CCCC(C)CCCC(C)CCO (stereo not shown) [Saturated decaprenol]	10 to 40%	++ (25%-40%)			> 5000 mg/kg	> 5000 mg/kg
CCCCCCCC/C=C/CCCCCCCCCCCC(=O)OC/C=C(\C)CCC[C@H](C)CCC[C@H](C)CCCC(C)C [Phytyl brassidate]	10 to 40%	++ (25%-40%)	> 4000 mg/kg	> 4000 mg/kg		
